Laboratory results as given in patent publication US8389539B2, “Azacyclic derivatives” (Hoffman-La Roche Inc., priority 2009, dated 2013).

Target: T1, human HSL (Homo sapiens, UniProt Q05469)
T1 construct: overlapping PCR to generate a full length human HSL ORF with a 3′-His6 tag; His6 (C); made in house; host or cells: High 5 insect cells (baculovirus, pFast-BAC)
T1 sequence (Q05469 1-1076): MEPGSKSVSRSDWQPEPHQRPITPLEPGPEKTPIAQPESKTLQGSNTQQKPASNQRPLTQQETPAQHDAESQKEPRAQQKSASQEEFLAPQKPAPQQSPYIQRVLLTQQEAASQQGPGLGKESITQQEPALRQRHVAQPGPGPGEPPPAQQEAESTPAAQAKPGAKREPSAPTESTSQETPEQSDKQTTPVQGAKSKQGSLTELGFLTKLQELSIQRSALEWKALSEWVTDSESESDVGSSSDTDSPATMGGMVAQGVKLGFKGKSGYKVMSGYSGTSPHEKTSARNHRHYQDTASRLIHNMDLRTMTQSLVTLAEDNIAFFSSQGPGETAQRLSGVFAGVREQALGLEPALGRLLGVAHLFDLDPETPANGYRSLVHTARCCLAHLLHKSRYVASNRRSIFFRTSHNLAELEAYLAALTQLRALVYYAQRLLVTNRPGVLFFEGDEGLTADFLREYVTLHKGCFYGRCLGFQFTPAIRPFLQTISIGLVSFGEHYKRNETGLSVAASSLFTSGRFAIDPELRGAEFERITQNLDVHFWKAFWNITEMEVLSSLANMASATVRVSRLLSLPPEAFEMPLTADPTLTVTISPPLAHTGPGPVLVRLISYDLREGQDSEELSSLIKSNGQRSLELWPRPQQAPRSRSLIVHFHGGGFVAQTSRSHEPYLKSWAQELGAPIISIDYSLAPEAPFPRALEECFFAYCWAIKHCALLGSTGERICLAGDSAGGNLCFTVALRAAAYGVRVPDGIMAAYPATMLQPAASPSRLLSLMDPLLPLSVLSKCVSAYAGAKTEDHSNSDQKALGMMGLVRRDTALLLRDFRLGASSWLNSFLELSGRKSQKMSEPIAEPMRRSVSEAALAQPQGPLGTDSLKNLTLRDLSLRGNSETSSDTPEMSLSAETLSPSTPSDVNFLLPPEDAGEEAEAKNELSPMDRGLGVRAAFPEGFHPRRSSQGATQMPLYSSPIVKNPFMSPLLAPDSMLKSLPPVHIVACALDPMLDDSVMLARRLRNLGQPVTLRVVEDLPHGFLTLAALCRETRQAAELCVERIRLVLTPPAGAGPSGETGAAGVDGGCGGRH
Experiment: Human Hormone-Sensitive Lipase (HSL) enzyme inhibition assay (colorimetric, DMPT substrate)
Format: biochemical
Conditions: human full length HSL-His6, 2,3-dimercapto-1-propanol tributyrate substrate, 37° C. 20 minutes, absorbance at 405 nm; read-out: HSL hum IC50
Description: 1) Cloning: cDNA was prepared from commercial human brain polyA+ RNA and used as a template in overlapping PCR to generate a full length human HSL ORF with a 3′-His6 tag. This full length insert was cloned into the pFast-BAC vector and the DNA-sequence of several single clones was verified. DNA from a correct full length clone with the 3′His6 tag was used to transform the E. coli strain DH10BAC. Resulting bacmid DNA was used to generate a titered baculovirus stock for protein generation.
Cells were thawed. […] was done at 3×30 sec., Lubrol PX was added to 0.2% final concentration followed by stirring for 15 min. at 4° C. and centrifugation at 25 k×g, 60 min., 4° C. […] Supernatant was removed, the resin washed in the centrifuge vessel using 5 volumes of Base Buffer containing 0.2% Lubrol PX. Centrifugation was done again, then the supernatant discarded. The resin was poured onto a 0.8 μm membrane in a disposable filter unit (Nalge 450-0080), and washed with 5 volumes of Base Buffer containing 0.2% Lubrol PX. It was then washed with 30 volumes of Base Buffer containing 60 mM imidazole pH 7.5 at 4° C. The protein was eluated with 5 volumes of 25 mM Tris-Cl, 300 mM NaCl, 200 mM imidazole, 10 mM 2-mercaptoethanol, pH 7.5 at 4° C. by tumbling resin with buffer end-over-end, 30 min., 4° C. The resin was captured on a 0.2 μm membrane disposable filter unit (Millipore SCGP U02 RE) and the eluate collected in the reservoir. The eluate was concentrated using a 30 k MWCO centrifugal filter device (Sartorius Vivascience Vivacell 100, VC1022), to 20 ml. It was then dialyzed overnight at 4° C., two times against 2 L of 10% glycerol, 25 mM Tris-Cl, 300 mM NaCl, 0.2 mM EDTA, 0.2 mM DTT, pH 7.5 at 4° C. The protein was filtered using a 0.22 μm disposable filter unit (Millipore SCGP00525). The protein concentration was calculated from absorbance at 280 nm, using 280=0.67 cm-1 mg-1. […] The protein was stored at −80° C.
Human Hormone-Sensitive Lipase (HSL) Enzyme Inhibition Assay:
HSL enzyme activity was measured by a colorimetric assay using 2,3-dimercapto-1-propanol tributyrate (Aldrich, St. Louis, Mo.) as a substrate. Typically, 1.5 mM 2,3-dimercapto-1-propanol tributyrate (DMPT) in 100 mM MOPS, pH 7.2, 0.2 mg/ml fatty acid-free BSA was prepared by sonication at 4° C. to homogenous suspension. Test compounds (2 mM stock in DMSO) were diluted 3 fold in series in DMSO. Compound solutions were diluted 24 fold in 1.5 mM DMPT containing solution and 18 ul per well was added to 384-well microplates (Corning Costar). Twelve microliters per well of human HSL (15 ug/ml) was added and the reaction mixture was incubated at 37° C. for 20 minutes. Six microliters of 12 mM dithio-bis-(2-nitrobenzoic acid) (DTNB) in DMSO plus 1.2% SDS and 0.6% Triton X-100 were added and the mixture was incubated at room temperature for 15 minutes. Product production was monitored by reading absorbance at 405 nm on an Envision Reader (PerkinElmer Life and Analytical Sciences, Shelton, Conn.).

SMILES | IC50 [nM]
CCCCNC(=O)[C@H](CCCC)N1CCC2(CCN(c3ccc(C4CC4)cc3)C2=O)CC1 [Example 41, (S)-2-[2-(4-Cyclopropyl-phenyl)-1-oxo-2,8-diaza-spiro[4.5]dec-8-yl]-hexanoic acid butylamide] | 47
CCc1ccc(N2CCC3(CCN(CC(=O)c4ccc(Cl)cc4Cl)CC3)C2=O)cc1 [Example 43, 8-[2-(2,4-Dichloro-phenyl)-2-oxo-ethyl]-2-(4-ethyl-phenyl)-2,8-diaza-spiro[4.5]decan-1-one] | 36
O=C1N(c2ccc(OCC(F)(F)F)cc2)CCC12CCN(CC(O)c1ccc(Cl)cc1Cl)CC2 (stereo not drawn) [Example 44, 8-[2-(2,4-Dichloro-phenyl)-2-hydroxy-ethyl]-2-[4-(2,2,2-trifluoro-ethoxy)-phenyl]-2,8-diaza-spiro[4.5]decan-1-one] | 26
C[C@@H](Oc1ccc(N2CCC3(CCN(CC(O)c4c(F)cccc4Cl)CC3)C2=O)cc1)C(F)(F)F (stereo partly drawn) [Example 48, 8-[2-(2-Chloro-6-fluoro-phenyl)-2-hydroxy-ethyl]-2-[4-((R)-2,2,2-trifluoro-1-methyl-ethoxy)-phenyl]-2,8-diaza-spiro[4.5]decan-1-one] | 23
C[C@@H](Oc1ccc(N2CCC3(CCN(CC(O)c4c(F)cccc4Cl)CC3)C2=O)cn1)C(F)(F)F (stereo partly drawn) [Example 49, 8-[2-(2-Chloro-6-fluoro-phenyl)-2-hydroxy-ethyl]-2-[6-((R)-2,2,2-trifluoro-1-methyl-ethoxy)-pyridin-3-yl]-2,8-diaza-spiro[4.5]decan-1-one] | 42
C[C@@H](Oc1ccc(N2CCC3(CCN(CC(O)c4ccc(Cl)cc4Cl)CC3)C2=O)cc1)C(F)(F)F (stereo partly drawn) [Example 51, 8-[2-(2,4-Dichloro-phenyl)-2-hydroxy-ethyl]-2-[4-((R)-2,2,2-trifluoro-1-methyl-ethoxy)-phenyl]-2,8-diaza-spiro[4.5]decan-1-one] | 22
C[C@H](Oc1ccc(N2CCC3(CCN(CC(O)c4ccc(Cl)cc4Cl)CC3)C2=O)cc1)C(F)(F)F (stereo partly drawn) [Example 52, 8-[2-(2,4-Dichloro-phenyl)-2-hydroxy-ethyl]-2-[4-((S)-2,2,2-trifluoro-1-methyl-ethoxy)-phenyl]-2,8-diaza-spiro[4.5]decan-1-one] | 20

More lines, now with the values ahead:

IC50 [nM] | SMILES
11 | CCCCNC(=O)[C@@H](CCCC)N1CCC2(CCN(c3ccc(C4CC4)cc3)C2=O)CC1 [Example 42, (R)-2-[2-(4-Cyclopropyl-phenyl)-1-oxo-2,8-diaza-spiro[4.5]dec-8-yl]-hexanoic acid butylamide]
22 | C[C@@H](Oc1ccc(N2CCC3(CCN(CC(O)c4ccc(Cl)cc4Cl)CC3)C2=O)cn1)C(F)(F)F (stereo partly drawn) [Example 45, 8-[2-(2,4-Dichloro-phenyl)-2-hydroxy-ethyl]-2-[6-((R)-2,2,2-trifluoro-1-methyl-ethoxy)-pyridin-3-yl]-2,8-diaza-spiro[4.5]decan-1-one]
19 | O=C1N(c2ccc(CC(F)(F)F)cc2)CCC12CCN(CC(O)c1ccc(Cl)cc1Cl)CC2 (stereo not drawn) [Example 46, 8-[2-(2,4-Dichloro-phenyl)-2-hydroxy-ethyl]-2-[4-(2,2,2-trifluoro-ethyl)-phenyl]-2,8-diaza-spiro[4.5]decan-1-one]
35 | O=C1N(c2ccc(OCC(F)(F)F)cc2)CCC12CCN(CC(O)c1c(F)cccc1Cl)CC2 (stereo not drawn) [Example 47, 8-[2-(2-Chloro-6-fluoro-phenyl)-2-hydroxy-ethyl]-2-[4-(2,2,2-trifluoro-ethoxy)-phenyl]-2,8-diaza-spiro[4.5]decan-1-one]
18 | O=C1N(c2ccc(CC(F)(F)F)cc2)CCC12CCN(CC(O)c1c(F)cccc1Cl)CC2 (stereo not drawn) [Example 50, 8-[2-(2-Chloro-6-fluoro-phenyl)-2-hydroxy-ethyl]-2-[4-(2,2,2-trifluoro-ethyl)-phenyl]-2,8-diaza-spiro[4.5]decan-1-one]
43 | C[C@H](Oc1ccc(N2CCC3(CCN(CC(O)c4ccc(Cl)cc4Cl)CC3)C2=O)cn1)C(F)(F)F (stereo partly drawn) [Example 53, 8-[2-(2,4-Dichloro-phenyl)-2-hydroxy-ethyl]-2-[6-((S)-2,2,2-trifluoro-1-methyl-ethoxy)-pyridin-3-yl]-2,8-diaza-spiro[4.5]decan-1-one]
29 | C[C@H](Oc1ccc(N2CCC3(CCN(CC(O)c4c(F)cccc4Cl)CC3)C2=O)cc1)C(F)(F)F (stereo partly drawn) [Example 54, 8-[2-(2-Chloro-6-fluoro-phenyl)-2-hydroxy-ethyl]-2-[4-((S)-2,2,2-trifluoro-1-methyl-ethoxy)-phenyl]-2,8-diaza-spiro[4.5]decan-1-one]
38 | C[C@H](Oc1ccc(N2CCC3(CCN(CC(O)c4c(F)cccc4Cl)CC3)C2=O)cn1)C(F)(F)F (stereo partly drawn) [Example 55, 8-[2-(2-Chloro-6-fluoro-phenyl)-2-hydroxy-ethyl]-2-[6-((S)-2,2,2-trifluoro-1-methyl-ethoxy)-pyridin-3-yl]-2,8-diaza-spiro[4.5]decan-1-one]
